# From US6593454B2, “Methods for identifying inhibitors of methionine aminopeptidases” (Saint Louis University, priority 1999, dated 2003)
# What was measured:
# type 2 MAP = type 2 MAP (Homo sapiens, UniProt P50579); experiment: Coupled MAP/dipeptidyl peptidase IV assay, release of p-nitroanilide at 405 nm, type 2 MAP inhibition; type: biochemical
# Procedure: (§1) MAP activity was next determined by monitoring the release of p-nitroanilide in a microtiter format. Purified type 1 MAP or type 2 MAP (0.6 μg) and/or 0.001 unit of dipeptidyl peptidase IV was added in 47 μl of buffer H (10 mM Hepes, pH 7.4, 10% glycerol), containing 0.1 M KCl and 0.1 mM of Co^2+ in wells of a 96-well microtiter plate. After incubating at 37° C. for 5 min, 2 mM of Met-Gly-Pro-p-nitroanilide was added to the mixture to start the reaction. A microtiter plate reader, set at 405 nm to detect released p-nitroanilide, was used to record the progress of the reactions. […] These curves are highly reproducible and linear, with correlation coefficients (r^2)>0.98.
# (§2) After incubating the inhibitor with MAP solutions at 37° C. for 10 min, 2 mM of Met-Gly-Pro-p-nitroanilide was added to start the reaction, and the release of p-nitroanilide was monitored with a microtiter plate reader at 405 nm as described above. The effect of fumigillin on dipeptidyl peptidase IV activity was also tested by using Gly-Pro-p-nitroanilide as the substrate.
# type 1 MAP = type 1 MAP (Saccharomyces cerevisiae, UniProt Q01662); experiment: Coupled MAP/dipeptidyl peptidase IV assay, release of p-nitroanilide at 405 nm, type 1 MAP inhibition; type: biochemical, yeast
# Procedure: as §1, §2
# dipeptidyl peptidase IV = dipeptidyl peptidase IV (Homo sapiens, UniProt P27487); experiment: Dipeptidyl peptidase IV control assay with Gly-Pro-p-nitroanilide as substrate; type: biochemical
# Procedure: as §1, §2
# [1] = FIG. 3 legend, dipeptidyl peptidase IV and Met-Gly-Pro-p-nitroanilide, no concentration stated
# Chain of type 2 MAP (P50579 whole entry): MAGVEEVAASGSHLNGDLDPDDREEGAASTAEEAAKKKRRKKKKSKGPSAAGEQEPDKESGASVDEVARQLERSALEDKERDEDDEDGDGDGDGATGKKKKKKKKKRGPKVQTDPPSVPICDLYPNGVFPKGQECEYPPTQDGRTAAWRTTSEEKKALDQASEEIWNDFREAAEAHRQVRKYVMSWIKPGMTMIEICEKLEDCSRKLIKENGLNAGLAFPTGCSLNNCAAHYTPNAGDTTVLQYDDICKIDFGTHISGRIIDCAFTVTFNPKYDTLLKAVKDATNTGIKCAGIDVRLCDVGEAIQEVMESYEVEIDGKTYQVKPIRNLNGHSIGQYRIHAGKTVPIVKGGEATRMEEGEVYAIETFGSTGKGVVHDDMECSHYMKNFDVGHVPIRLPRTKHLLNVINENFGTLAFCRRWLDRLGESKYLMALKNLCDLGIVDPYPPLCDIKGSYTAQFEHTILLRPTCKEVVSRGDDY
# Chain of type 1 MAP (Q01662 whole entry): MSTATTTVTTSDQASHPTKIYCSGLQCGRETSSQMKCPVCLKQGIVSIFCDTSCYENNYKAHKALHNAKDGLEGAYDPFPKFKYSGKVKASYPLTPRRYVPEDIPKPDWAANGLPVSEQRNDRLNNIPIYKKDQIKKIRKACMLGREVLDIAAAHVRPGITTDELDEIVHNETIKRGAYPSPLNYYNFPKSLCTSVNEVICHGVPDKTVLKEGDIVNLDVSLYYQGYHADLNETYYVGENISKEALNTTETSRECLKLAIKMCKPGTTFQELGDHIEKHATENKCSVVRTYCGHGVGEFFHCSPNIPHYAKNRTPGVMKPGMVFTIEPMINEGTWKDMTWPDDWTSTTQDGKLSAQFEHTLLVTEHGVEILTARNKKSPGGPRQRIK
# Chain of dipeptidyl peptidase IV (P27487 whole entry, species assumed): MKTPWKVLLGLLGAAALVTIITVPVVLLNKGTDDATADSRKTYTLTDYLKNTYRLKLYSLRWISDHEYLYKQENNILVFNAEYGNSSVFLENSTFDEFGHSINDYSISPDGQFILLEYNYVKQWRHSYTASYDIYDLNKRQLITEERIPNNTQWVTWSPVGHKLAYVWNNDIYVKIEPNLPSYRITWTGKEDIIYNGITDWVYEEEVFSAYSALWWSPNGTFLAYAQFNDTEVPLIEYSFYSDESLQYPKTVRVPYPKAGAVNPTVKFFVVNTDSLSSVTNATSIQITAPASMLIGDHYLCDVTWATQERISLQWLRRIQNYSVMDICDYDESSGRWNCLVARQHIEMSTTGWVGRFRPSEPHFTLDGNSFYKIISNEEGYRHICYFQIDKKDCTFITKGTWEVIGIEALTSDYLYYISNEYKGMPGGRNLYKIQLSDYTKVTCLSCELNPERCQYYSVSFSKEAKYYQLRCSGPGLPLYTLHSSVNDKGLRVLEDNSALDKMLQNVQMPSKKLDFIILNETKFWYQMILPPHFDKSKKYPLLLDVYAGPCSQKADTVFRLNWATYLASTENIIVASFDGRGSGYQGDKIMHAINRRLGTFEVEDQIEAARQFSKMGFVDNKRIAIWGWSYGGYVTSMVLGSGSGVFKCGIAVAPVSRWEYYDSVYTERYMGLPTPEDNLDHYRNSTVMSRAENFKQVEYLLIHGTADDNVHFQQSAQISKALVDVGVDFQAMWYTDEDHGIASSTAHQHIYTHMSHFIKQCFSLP
smiles,measurement,setting,value
CO[C@@H]1[C@H](OC(=O)/C=C/C=C/C=C/C=C/C(=O)O)CC[C@]2(CO2)[C@H]1[C@@]1(C)O[C@@H]1CC=C(C)C [fumagillin],type 2 MAP activity,"type 2 MAP; 20 nM inhibitor, 10 min preincubation at 37° C., 2 mM Met-Gly-Pro-p-nitroanilide, FIG. 3",completely inhibited
same,release of p-nitroanilide when type 2 MAP was used,type 2 MAP; [1],strongly inhibited
same,type 1 MAP activity,"type 1 MAP; 50 nM inhibitor, 10 min preincubation at 37° C., 2 mM Met-Gly-Pro-p-nitroanilide, FIG. 3",remained unaffected
same,release of p-nitroanilide when type 1 MAP was used,type 1 MAP; [1],not
same,dipeptidyl peptidase IV activity,"dipeptidyl peptidase IV; 50 nM inhibitor, Gly-Pro-p-nitroanilide as substrate, FIG. 3",remained unaffected
same,release of p-nitroanilide when dipeptidyl peptidase IV was used with Gly-Pro-p-nitroanilide,"dipeptidyl peptidase IV; FIG. 3 legend, no concentration stated",not
